One assay relates to primary neurones isolated from rat striatum expressing mutated huntingtin. Nature of the assay: Protection of striatum neurones in a death test induced by over-expression of a mutated form of huntingtin, GFP as reporter gene. It counts as cell-based. The settings on record: 0.3 μM compound; survival of GFP-positive cells minus DMSO, relative to BDNF (5 ng/ml) minus DMSO; active when ratio larger than 0.2. On the procedure:
Evaluation of the Protection Provided by the Compound of Formula I on Striatum Neurones in a Death Test Induced by Over-Expression of a Mutated Form of Huntingtine by Using GFP as Reporter Gene
Primary cultures of striatum neurones are prepared as described in the literature (Mao L. et al., Methods Mol. Med., 2003, 79: 379-86).
Before sowing, an expression vector containing a promoter element followed by the DNA coding for a truncated form of huntingtin which comprises the first 480 amino acids and 68 CAG codons (Saudou et al., Cell, 1998, 95:55-66), purified beforehand, is introduced by electroporation according to the procedure described by Raoul et al., (Neuron, 2002, 35:1067-83).
A second expression vector, also purified beforehand, containing DNA coding for the green fluorescent protein (GFP) (Columbia University) is also electroporated and is used as a reporter gene.
The cells which survive electroporation are sown at a density of 4,000 cells per well on 96-well plates. The culture is achieved in 175 μl of Neurobasal medium (GIBCO) complemented with final 1 mM of pyruvate and with B-27 1/100 (Beckton Dickinson). The cells are maintained in the culture for 6 days without changing the medium.
[…] Positive controls are made by adding BDNF (Brain-Derived Neurotrophic Factor) at 5 ng/ml (Tebu) finally. The negative controls only receive 0.5% DMSO.
Cell death is evaluated after 7 days by counting the number of living cells expressing GFP.
The activity of the compounds to be tested was evaluated by their capability of preventing death of striatum neurones grown in the Neurobasal medium, as compared with survival of striatum neurones in a medium supplemented with BDNF.
The results are expressed as a ratio evaluating survival of positive GFP cells in the presence of the compound to be tested. This is therefore the number of living cells after treatment with the compound to be tested, reduced by the number of living cells after treatment with DMSO, based on (divided by) the number of survival cells after treatment with BDNF, reduced by the number of living cells after treatment with DMSO.
This ratio therefore represents the survival percentage due to the tested compound relatively to survival induced by BDNF.
In this test, a compound is considered as being active when said ratio is larger than 0.2 i.e. when it has a neuroprotective activity at least equal to 20% of the neuroprotective activity of BDNF.
Turning to `CS(=O)(=O)c1cccc(C=CC=NNc2nc(-c3ccc(C(F)(F)F)cc3)cs2)c1` [Example 24], the GFP ratio is more than 0.2. Still for that read-out and setting: in the case of `FC(F)(F)c1ccc(-c2csc(NN=CC=Cc3ccccn3)n2)cc1` [Example 26] it was more than 0.2.

The same assay, now with this note: 1 μM compound; survival of GFP-positive cells minus DMSO, relative to BDNF (5 ng/ml) minus DMSO; active when ratio larger than 0.2.
For the compound `Fc1ccccc1C=CC=NNc1nc(-c2ccc(Cl)cc2)cs1` [Example 1], the GFP ratio is on record as more than 0.2.

Consider `N#Cc1cccc(C=CC=NNc2nc(-c3ccc(Cl)cc3)cs2)c1` [Example 10], for which the GFP ratio is on record as more than 0.2. The same measure, in the same setting: in the case of `N#Cc1cccc(C=CC=NNc2nc(-c3ccc(C(F)(F)F)cc3)cs2)c1` [Example 11] it was more than 0.2; in that of `O=[N+]([O-])c1cccc(C=CC=NNc2nc(-c3ccc(C(F)(F)F)cc3)cs2)c1` [Example 13], more than 0.2; in that of `Nc1cccc(C=CC=NNc2nc(-c3ccc(Cl)cc3)cs2)c1` [Example 14], more than 0.2. Still for that read-out and setting: in the case of `Nc1cccc(C=CC=NNc2nc(-c3ccc(C(F)(F)F)cc3)cs2)c1` [Example 17] it was more than 0.2. On to `CS(=O)(=O)c1cccc(C=CC=NNc2nc(-c3ccc(Cl)cc3)cs2)c1` [Example 18], for which the GFP ratio is on record as more than 0.2. Turning to `FC(F)(F)c1ccc(-c2csc(NN=CC=Cc3ccc4c(c3)OCO4)n2)cc1` [Example 21], the GFP ratio was more than 0.2.

For the compound `Clc1ccc(-c2csc(NN=CC=Cc3ccccn3)n2)cc1` [Example 25], the GFP ratio is more than 0.2.

The same assay, now with this note: 3 μM compound; survival of GFP-positive cells minus DMSO, relative to BDNF (5 ng/ml) minus DMSO; active when ratio larger than 0.2.
Take “3-(3-nitrophenyl)-2-propenal-[4-(4-chlorophenyl-2-thiazolyl)hydrazone [Example 2]”: the GFP ratio is on record as more than 0.2. For `COc1ccccc1C=CC=NNc1nc(-c2ccc(Cl)cc2)cs1` [Example 3], the GFP ratio was more than 0.2. `Oc1cccc(-c2csc(NN=CC=Cc3ccccc3)n2)c1` [Example 7]: the GFP ratio is recorded as more than 0.2. Turning to `Cc1ccccc1C=CC=NNc1nc(-c2ccc(Cl)cc2)cs1` [Example 9], the GFP ratio was more than 0.2. `FC(F)(F)c1ccc(-c2csc(NN=CC=Cc3ccncc3)n2)cc1` [Example 16]: the GFP ratio is more than 0.2.

For the compound `N#Cc1cccc(C=CC=NNc2nc(-c3cccc(O)c3)cs2)c1` [Example 19], the GFP ratio was more than 0.2. Take `COc1cc(Cl)ccc1-c1csc(NN=CC=Cc2ccccc2)n1` [Example 22]: the GFP ratio is on record as more than 0.2. Same read-out and setting: in the case of `Fc1ccc(C=CC=NNc2nc(-c3ccc(C(F)(F)F)cc3)cs2)cc1` [Example 29] it was more than 0.2.

The assay is the same for the next values; noted with them: 10 μM compound; survival of GFP-positive cells minus DMSO, relative to BDNF (5 ng/ml) minus DMSO; active when ratio larger than 0.2.
As for “3-(2-chlorophenyl)-2-propenal-[4-(4-chlorophenyl-2-thiazolyl)hydrazone [Example 12]”, the GFP ratio is more than 0.2. Still for that read-out and setting: in the case of `COc1cccc(C=CC=NNc2nc(-c3ccc(Cl)cc3)cs2)c1` [Example 6] it was more than 0.2. On the same count and under the same terms, in the case of `Clc1ccc(-c2csc(NN=CC=Cc3ccncc3)n2)cc1` [Example 8] it was more than 0.2.

These data come from patent US8691854B2, “Chemical compounds and the uses thereof as a medicine” (Trophos, priority 2005, dated 2014).
